Laboratory results as given in US20210363545A1, “GENETIC SELECTION MARKERS BASED ON ENZYMATIC ACTIVITIES OF THE PYRIMIDINE SALVAGE PATHWAY” (priority 2018, published 2021).
Values after ≈ are worked out from the molar mass of the structure shown. Where two headings read alike, the source gives them in different places.

What was measured:
A. fumigatus = experiment: broth microdilution susceptibility testing according to EUCAST; format: cell-based, Aspergillus fumigatus
Text: (§1) To identify encoded A. fumigatus FcyB, FcyA, Uprt, Uk and CntA activities in further fungal species, it was searched for A. fumigatus orthologs in biotechnology-relevant species (Aspergillus niger, Aspergillus oryzae, P. chrysogenum, Komagataella phaffii alias Pichia pastoris, S. cerevisiae, Trichoderma reesei) and in virulence-relevant species (Candida albicans, Cryptococcus neoformans, F. oxysporum). Orthologs to A. fumigatus proteins with an overall identity 40% were considered as putative orthologs if activities could be confirmed by susceptibility testing following a broth microdilution based method according to EUCAST (see Table 10).

P. pastoris = experiment: as above; format: cell-based, Komagataella phaffii alias Pichia pastoris
Text: as §1

A. fumigatus ΔfcyA = experiment: plate growth assay based susceptibility testing on solid AMM; format: cell-based, Aspergillus fumigatus
Experimental: (§2) Plate growth assay based susceptibility testing of A. fumigatus and P. chrysogenum was carried out using solid AMM, for F. oxysporum solid PDA was employed. Low pH medium contained 100 mM citrate buffer (pH5), neutral pH medium 100 mM MOPS buffer (pH7). For strains carrying PxylP tunable reporter genes (sGFP, mKate2PER, sGFPMIT, lacZ), 0.5% xylose was supplemented to the medium to induce gene expression.
(§3) Coding sequences of fcyA and uprt were disrupted in wt (A1160P+) using hygromycin B and zeocin resistance cassettes, respectively. Therefore, deletion constructs comprising approximately 1 kb of 5′ and 3′ NTR linked to the central antibiotic resistance cassette were generated using fusion PCR as previously described (Fraczek, et al., The Journal of antimicrobial chemotherapy 68, 1486-1496 (2013)). Correct integration of constructs was confirmed by Southern analysis (see FIG. 14).
Among other fungal species, A. fumigatus is susceptible to 5FC (Te Dorsthorst et al., Antimicrob Agents Chemother 48, 3147-3150 (2004); Te Dorsthorst et al., Antimicrobial agents and chemotherapy 49, 3341-3346 (2005)) and is therefore anticipated to harbor genes encoding CD and UPRT in addition to 5FC uptake. […]

A. fumigatus ΔfcyB = experiment: as above; format: cell-based, Aspergillus fumigatus; details: for growth of ΔfcyB: 100 μg/ml
Experimental: (§4) pH 5 transcriptionally activates fcyB mediated uptake of 5FC. […] Inactivation of fcyB leads to resistance at 10 μg/ml 5FC at pH 5. Inactivation of fcyB leads to resistance on AMM (AMM Composition: 55.5 mM D-glucose, 20.0 mM ammonium tartrate, 7 mM KCl, 2.1 mM MgSO4 x 7H2O, 11.2 mM KH2PO4, 0.09 μM Na2B4O7 x 10H2O, 1 μM CuSO4 x 5H2O, 10 μM FeSO4 x 7H2O, 4.5 μM MnSO4 x 4H2O, 3.1 μM Na2MoO4 x 10H2O, […] ZnSO4 x 7H2O, 0.7% Agar; finally adjusted to pH 6.5 using NaOH before autoclaving) supplemented with 10 μg/ml 5FC and 100 mM citrate buffer pH 5.
as §2
(§5) Among other fungal species, A. fumigatus is susceptible to 5FC (Te Dorsthorst et al., Antimicrob Agents Chemother 48, 3147-3150 (2004); Te Dorsthorst et al., Antimicrobial agents and chemotherapy 49, 3341-3346 (2005)) and is therefore anticipated to harbor genes encoding CD and UPRT in addition to 5FC uptake. […] To analyze their role in 5FC as well as 5FU activity, fcyA and uprt was inactivated in the A. fumigatus strain A1160P+ (Fraczek, et al., The Journal of antimicrobial chemotherapy 68, 1486-1496 (2013)), termed wt here, using hygromycin and phleomycine resistance based deletion cassettes. Due to the interdependency of 5FC activity and environmental pH (Gsaller et al., Antimicrob Agents Chemother 62 (2018); Te Dorsthorst et al., Antimicrob Agents Chemother 48, 3147-3150 (2004)) the contribution of both enzymes as well as FcyB to 5FC and 5FU activity at both pH5 and pH7 was investigated.

[1] = system: A. fumigatus wt (A1160P+); experiment: as above; format: cell-based, Aspergillus fumigatus; details: for pH dependence of activity: A. fumigatus
Experimental: as §4, §2, §5

T. reesei = experiment: broth microdilution susceptibility testing according to EUCAST; format: cell-based, Trichoderma reesei
Text: as §1

P. chrysogenum = experiment: as above; format: cell-based, Penicillium chrysogenum
Text: as §1

C. neoformans = experiment: as above; format: cell-based, Cryptococcus neoformans
Text: as §1

A. niger = experiment: as above; format: cell-based, Aspergillus niger
Text: as §1

A. fumigatus Δuprt = experiment: plate growth assay based susceptibility testing on solid AMM; format: cell-based, Aspergillus fumigatus; details: for growth of Δuprt strains: 200 μg/ml; for growth after inactivation of uprt: AMM supplemented with 100 μg/ml, pH7
Experimental: Furthermore, 5-FU supplementation inhibits ΔfcyB (see FIG. 4). Inactivation of uprt allows growth of A. fumigatus on AMM supplemented with 100 μg/ml 5FC or 5FU at pH7 (see FIG. 4). At concentrations 10-500 μg/ml 5FC or 5FU, independent of the pH (200 μg/ml 5FC as well as 5FU were also tested and the Δuprt strains grow).
as §2, §3, §5

F. oxysporum = experiment: broth microdilution susceptibility testing according to EUCAST; format: cell-based, Fusarium oxysporum
Text: as §1

C. albicans = experiment: as above; format: cell-based, Candida albicans
Text: as §1

S. cersvisiae = experiment: as above; format: cell-based, S. cerevisiae
Text: as §1

A. oryzae = experiment: as above; format: cell-based, Aspergillus oryzae
Text: as §1

[2] = system: A. fumigatus with inactivated cntA; experiment: growth on AMM supplemented with 5-FUR; format: cell-based, Aspergillus fumigatus; details: AMM supplemented with 100 μg/ml
[3] = system: A. fumigatus with inactivated uk; experiment: growth on AMM supplemented with 5-FUR; format: cell-based, Aspergillus fumigatus; details: AMM supplemented with 100 μg/ml
[4] = Aspergillus fumigatus, pH 5, read-out: MIC
[5] = Aspergillus fumigatus, pH 7, read-out: MIC
[6] = Komagataella pastoris, pH 5, read-out: MIC
[7] = Komagataella pastoris, pH 7, read-out: MIC
[8] = Trichoderma reesei, pH 5, read-out: MIC
[9] = Trichoderma reesei, pH 7, read-out: MIC
[10] = Penicillium chrysogenum, pH 5, read-out: MIC
[11] = Penicillium chrysogenum, pH 7, read-out: MIC
[12] = Cryptococcus neoformans, pH 5, read-out: MIC
[13] = Cryptococcus neoformans, pH 7, read-out: MIC
[14] = Aspergillus niger, pH 5, read-out: MIC
[15] = Aspergillus niger, pH 7, read-out: MIC
[16] = Fusarium oxysporum, pH 5, read-out: MIC
[17] = Fusarium oxysporum, pH 7, read-out: MIC
[18] = Candida albicans, pH 5, read-out: MIC
[19] = Candida albicans, pH 7, read-out: MIC
[20] = Saccharomyces cerevisiae, pH 5, read-out: MIC
[21] = Saccharomyces cerevisiae, pH 7, read-out: MIC
[22] = Aspergillus oryzae, pH 5, read-out: MIC
[23] = Aspergillus oryzae, pH 7, read-out: MIC
[24] = up to 100 μg/ml, regardless of the pH

Structure (SMILES): O=c1[nH]cc(F)c(=O)[nH]1 [5FU, 5-fluorouracil]
- MIC (A. fumigatus; [4]): 50 µg/mL (≈ 384 µM)
- MIC (A. fumigatus; [5]): > 400 µg/mL
- MIC (P. pastoris; [6]): 0.39 µg/mL (≈ 3 µM)
- MIC (P. pastoris; [7]): > 400 µg/mL
- growth of ΔfcyA (A. fumigatus ΔfcyA; 100 μg/ml, pH5 as well as pH7): blocked growth
- growth of ΔfcyB (A. fumigatus ΔfcyB; pH5 as well as pH7): blocked growth
- effect of supplementation on ΔfcyB (A. fumigatus ΔfcyB; solid Aspergillus minimal medium, FIG. 4): inhibits
- growth of wt ([1]; 100 μg/ml, pH5 as well as pH7): blocked growth
- pH dependence of activity [1]: pH independent
- concentrations that fully inhibit A. fumigatus growth ([1]; typically, AMM): > 100 µg/mL
- MIC (T. reesei; [8]): 100 µg/mL (≈ 769 µM)
- MIC (T. reesei; [9]): 0.39 µg/mL (≈ 3 µM)
- MIC (P. chrysogenum; [10]): 3.12 µg/mL (≈ 24 µM)
- MIC (P. chrysogenum; [11]): 3.12 µg/mL (≈ 24 µM)
- MIC (C. neoformans; [12]): 6.25 µg/mL (≈ 48 µM)
- MIC (C. neoformans; [13]): 12.5 µg/mL (≈ 96.1 µM)
- MIC (A. niger; [14]): 50 µg/mL (≈ 384 µM)
- MIC (A. niger; [15]): 0.39 µg/mL (≈ 3 µM)
- resistance of Δuprt (A. fumigatus Δuprt; 100 μg/ml, pH5 as well as pH7): high resistance
- growth of Δuprt strains (A. fumigatus Δuprt): grow
- growth after inactivation of uprt (A. fumigatus Δuprt): allows growth
- MIC (F. oxysporum; [16]): 400 µg/mL (≈ 3080 µM)
- MIC (F. oxysporum; [17]): > 400 µg/mL
- MIC (C. albicans; [18]): 50 µg/mL (≈ 384 µM)
- MIC (C. albicans; [19]): 0.39 µg/mL (≈ 3 µM)
- MIC (S. cersvisiae; [20]): 0.8 µg/mL (≈ 6.15 µM)
- MIC (S. cersvisiae; [21]): 100 µg/mL (≈ 769 µM)
- MIC (A. oryzae; [22]): 200 µg/mL (≈ 1540 µM)
- MIC (A. oryzae; [23]): 12.5 µg/mL (≈ 96.1 µM)

Structure (SMILES): O=c1[nH]c(=O)n([C@@H]2O[C@H](CO)[C@@H](O)[C@H]2O)cc1F [5FUR, 5-fluorouridine]
- MIC (A. fumigatus; [4]): 6.25 µg/mL (≈ 23.8 µM)
- MIC (A. fumigatus; [5]): > 400 µg/mL
- MIC (P. pastoris; [6]): 0.39 µg/mL (≈ 1.49 µM)
- MIC (P. pastoris; [7]): > 400 µg/mL
- resistance after inactivation of cntA [2]: significantly increases resistance
- pH dependence of activity [1]: pH independent
- concentrations that significantly inhibit A. fumigatus growth ([1]; AMM): > 100 µg/mL
- MIC (T. reesei; [8]): 0.39 µg/mL (≈ 1.49 µM)
- MIC (T. reesei; [9]): 0.39 µg/mL (≈ 1.49 µM)
- MIC (P. chrysogenum; [10]): 3.12 µg/mL (≈ 11.9 µM)
- MIC (P. chrysogenum; [11]): 3.12 µg/mL (≈ 11.9 µM)
- MIC (C. neoformans; [12]): 3.12 µg/mL (≈ 11.9 µM)
- MIC (C. neoformans; [13]): 12.5 µg/mL (≈ 47.7 µM)
- MIC (A. niger; [14]): 0.8 µg/mL (≈ 3.05 µM)
- MIC (A. niger; [15]): 0.39 µg/mL (≈ 1.49 µM)
- MIC (F. oxysporum; [16]): > 400 µg/mL
- MIC (F. oxysporum; [17]): > 400 µg/mL
- MIC (C. albicans; [18]): 0.39 µg/mL (≈ 1.49 µM)
- MIC (C. albicans; [19]): 0.39 µg/mL (≈ 1.49 µM)
- resistance after inactivation of uk [3]: increases resistance
- MIC (S. cersvisiae; [20]): 6.25 µg/mL (≈ 23.8 µM)
- MIC (S. cersvisiae; [21]): 25 µg/mL (≈ 95.3 µM)
- MIC (A. oryzae; [22]): 6.25 µg/mL (≈ 23.8 µM)
- MIC (A. oryzae; [23]): 12.5 µg/mL (≈ 47.7 µM)

Structure (SMILES): Nc1nc(=O)[nH]cc1F [5FC, 5-flucytosine]
- MIC (A. fumigatus; pH 5): 0.39 µg/mL (≈ 3.02 µM)
- MIC (A. fumigatus; pH 7): 400 µg/mL (≈ 3100 µM)
- MIC (P. pastoris; pH 5): 0.39 µg/mL (≈ 3.02 µM)
- MIC (P. pastoris; pH 7): 0.39 µg/mL (≈ 3.02 µM)
- resistance of ΔfcyA (A. fumigatus ΔfcyA; [24]): full resistance
- resistance after inactivation of fcyB (A. fumigatus ΔfcyB; 10 μg/ml, pH 5, AMM): resistance
- growth of ΔfcyB (A. fumigatus ΔfcyB; pH5): not able to grow
- growth of ΔfcyB (A. fumigatus ΔfcyB; pH7): severe growth inhibition
- susceptibility of WT isolate ([1]; 10 μg/ml, AMM with 100 mM citrate buffer pH 5): highly susceptible
- pH dependence of activity [1]: much more active at pH5
- level that blocked wt growth ([1]; wt, pH5, plate growth): ≥ 1 µg/mL
- level required to block wt growth ([1]; wt, pH7, plate growth): 100 µg/mL
- MIC (T. reesei; pH 5): >400 µg/mL
- MIC (T. reesei; pH 7): >400 µg/mL
- MIC (P. chrysogenum; pH 5): 0.39 µg/mL (≈ 3.02 µM)
- MIC (P. chrysogenum; pH 7): 3.12 µg/mL (≈ 24.2 µM)
- MIC (C. neoformans; pH 5): 0.39 µg/mL (≈ 3.02 µM)
- MIC (C. neoformans; pH 7): 25 µg/mL (≈ 194 µM)
- MIC (A. niger; pH 5): 0.39 µg/mL (≈ 3.02 µM)
- MIC (A. niger; pH 7): 6.25 µg/mL (≈ 48.4 µM)
- growth of Δuprt strains (A. fumigatus Δuprt): grow
- growth after inactivation of uprt (A. fumigatus Δuprt): allows growth
- resistance of Δuprt (A. fumigatus Δuprt; [24]): full resistance
- MIC (F. oxysporum; pH 5): >400 µg/mL
- MIC (F. oxysporum; pH 7): >400 µg/mL
- MIC (C. albicans; pH 5): 0.39 µg/mL (≈ 3.02 µM)
- MIC (C. albicans; pH 7): 0.39 µg/mL (≈ 3.02 µM)
- MIC (S. cersvisiae; pH 5): 0.39 µg/mL (≈ 3.02 µM)
- MIC (S. cersvisiae; pH 7): 0.39 µg/mL (≈ 3.02 µM)
- MIC (A. oryzae; pH 5): 0.39 µg/mL (≈ 3.02 µM)
- MIC (A. oryzae; pH 7): 400 µg/mL (≈ 3100 µM)
